Experimental findings from publication PMC7932521, “2-aminobenzimidazoles for leishmaniasis: From initial hit discovery to in vivo profiling” (PLoS Neglected Tropical Diseases, 2021) are described below.

Read-outs that look alike come from different tables or passages of the source.

Data set [1] in a line: Human liver microsomal stability. It is filed as in vitro ADME. Conditions: liver microsomes, pH 7.4; human liver microsome; read-out: HLM Clint. The protocol: The metabolic stability of the compounds was evaluated in human (pool of 200 donors, XenoTech) and mouse liver microsomes (CD1 mouse, GIBCO). Test compounds were prepared at a concentration of 0.5 μM and incubated with 0.25 mg/mL liver microsomes at pH 7.4 and 37°C. The reaction was started by addition of NADPH at […]. Samples were taken at 0, 5, 10, 15, 20 and 30 minutes. The reaction was stopped by the addition of acetonitrile:methanol (1:1) containing an internal standard (tolbutamide at 50 nM). Compounds were quantified by liquid chromatography triple quadrupole mass spectrometry (LC-MS/MS). Peak area ratios (analyte/internal standard) were converted to % remaining using the area ratio at time 0 as 100%. Half-life (t1/2 = ln(2)/k) in minutes and intrinsic clearance (Clint = k x 1000/(0.25)) in μL/min/mg were calculated using a non-linear regression from % remaining versus incubation time. From this plot, the slope (k) was determined. The analysis conditions were: analytical column (Gemini C18, […], Phenomenex), electrospray ionization source (ESI) in positive and negative mode, mobile phase A (water + 0.1% formic acid) and B (acetonitrile + 0.1% formic acid), flow rate of 0.7 mL/min.

Data set [2] concerns L. infantum LEM3323-cl4 MIL. The data set is described as follows: VL/CL panel, intracellular amastigotes. It is filed as cell-based. Conditions: Leishmania infantum, read-out: IC-50 L. infantum LEM3323-cl4 MIL. The protocol:
(§1) For the antileishmania in vitro assays, 3×10^4 PMM/well were seeded in 96-well plates. After 24h, 5×10^5 amastigotes/well were added and incubated for 2h at 37°C. Next, the compounds in 4-fold serial dilutions were added and the plates were further incubated for 5 days (37°C, 5% CO2). Parasite burdens were assessed using an inverted microscope after Giemsa staining. The results were expressed as percent reduction in parasite burdens compared to negative control wells (100% growth) and IC50 values were determined. Values represent the geometric mean of at least two independent experiments. Miltefosine was used as the positive control in all plates.

Data set [3] relates to L. infantum MHOM/FR/96/LEM3323-cl4. In words: VL/CL panel, intracellular amastigotes. It is filed as cell-based. Conditions: Leishmania infantum; average; read-out: IC-50 L. infantum MHOM/FR/96/LEM3323-cl4. The method, then: as §1
The subject of data set [4] is L. major MHOM/SA/85/JISH118. The data set is described as follows: VL/CL panel, intracellular amastigotes. Conditions: Leishmania major; average; read-out: IC-50 L. major MHOM/SA/85/JISH118. It is filed as cell-based. The method, then:
as §1

The subject of data set [5] is L. major MHOM/IL/81/Friedlin. The data set is described as follows: VL/CL panel, intracellular amastigotes. The following applies: Leishmania major; average; read-out: IC-50 L. major MHOM/IL/81/Friedlin. It is filed as cell-based. The protocol:
as §1

Data set [6] deals with L. donovani MHOM/NP/03/BPK275/0-cl18. In words: VL/CL panel, intracellular amastigotes. It is filed as cell-based. The following applies: Leishmania donovani; average; read-out: IC-50 L. donovani MHOM/NP/03/BPK275/0-cl18. The protocol:
as §1

The subject of data set [7] is L. tropica MHOM/AF/2015/HTD7. The data set is described as follows: VL/CL panel, intracellular amastigotes. It is filed as cell-based. Conditions: Leishmania tropica; average; read-out: IC-50 L. tropica MHOM/AF/2015/HTD7. The protocol: as §1
In data set [8] the test system is L. infantum MHOM/ES/2016/LLM-2346. In words: VL/CL panel, intracellular amastigotes. It is filed as cell-based. The following applies: Leishmania infantum; average; read-out: IC-50 L. infantum MHOM/ES/2016/LLM-2346. The method, then:
as §1

Data set [9] relates to L. guyanensis MHOM/PE/02/PER 054/0. In words: VL/CL panel, intracellular amastigotes. It is filed as cell-based. The following applies: Leishmania guyanensis; average; read-out: IC-50 L. guyanensis MHOM/PE/02/PER 054/0. The protocol:
as §1

In data set [10] the test system is L. panamensis MHOM/PA/71/LS94. In words: VL/CL panel, intracellular amastigotes. The following applies: Leishmania panamensis; average; read-out: IC-50 L. panamensis MHOM/PA/71/LS94. It is filed as cell-based. The method, then:
as §1

Data set [11] relates to L. infantum MHOM/BR/2007/WC (L3015). In words: VL/CL panel, intracellular amastigotes. It is filed as cell-based. Conditions: Leishmania infantum; average; read-out: IC-50 L. infantum MHOM/BR/2007/WC (L3015). The method, then: as §1
The subject of data set [12] is L. infantum LEM3323-cl4 PMM. In words: VL/CL panel, intracellular amastigotes. It is filed as cell-based. The following applies: Leishmania infantum, read-out: IC-50 L. infantum LEM3323-cl4 PMM. The protocol: as §1
For data set [13], the system named is L. donovani MHOM/ NP/2003/ BPK282/0-cl4. In words: VL/CL panel, intracellular amastigotes. It is filed as cell-based. Conditions: Leishmania donovani; average; read-out: IC-50 L. donovani MHOM/ NP/2003/ BPK282/0-cl4. The method, then: as §1
The test system of data set [14] is L. donovani MHOM/ET/2007/LLM-1600. In words: VL/CL panel, intracellular amastigotes. It is filed as cell-based. Conditions: Leishmania donovani; average; read-out: IC-50 L. donovani MHOM/ET/2007/LLM-1600. The protocol:
as §1

A short description of data set [15]: Mouse single-dose pharmacokinetics. It is filed as in vivo. Conditions: for free plasma concentration (corrected by PPB) versus in vitro IC50 (corrected for medium binding): after single oral dosing. The protocol:
Compounds were administered to groups (n = 6) of female BALB/c mice via single intravenous dosing (at 2 mg/kg) or single oral dosing (at 50 mg/kg) employing a solution/suspension vehicle comprising of 10% ethanol, 40% PEG400 and 0.4% Tween80 in saline buffer (pH adjusted to 9). Samples derived from plasma (at 0.083 for iv only, 0.25, 1, 2, 4, 8 and 24 h) were quantified by LC−MS/MS. Data analysis and calculation of pharmacokinetic parameters was performed using Phoenix WinNonlin version 7.0.

The mark [16] stands for this setting: female, BALB/c, plasma, single oral dose 50 mg/kg.
Where [17] appears, read: female, BALB/c, plasma, single oral dose 50 mg/kg, read-out: Cmax.

Consider `N#Cc1ccc2nc(NC(=O)c3ccnc(C(F)(F)F)c3)n(CC(F)(F)F)c2c1` [Compound 44, O=C(c1ccnc(C(F)(F)F)c1)Nc2nc(ccc(C#N)c3)c3n2CC(F)(F)F], for which, in data set [1], the microsomal CLint at 0.5 μM was found to be 30 µL/min/mg.

Regarding `Cn1nccc1C(=O)Nc1nc2ccc(C#N)cc2n1CC(C)(C)C` [Compound 29, O=C(Nc1n(CC(C)(C)C)c(c2n1)cc(C#N)cc2)c3n(C)ncc3], the IC50 came to 2160 nM in [2]; 2810 nM in data set [3]; 8640 nM in [4]; 1710 nM in data set [5]; 1020 nM in data set [6]; 2850 nM in [7]. The IC50 in [8] came out at 3170 nM; in data set [9], 550 nM; in data set [10] it was 630 nM; in [11], 2680 nM; in data set [12], 1620 nM; in data set [13] it was 300 nM. Also, in [14], the IC50 is 4040 nM. Further, the “higher AUClast, 50 vs 10 mg/kg oral” value in [15] is on record as “approximately 4 fold”. For the same compound, the “increase in Cmax, 50 vs 10 mg/kg oral” value in data set [15] amounted to 2 fold. Further, the “free plasma concentration (corrected by PPB) versus in vitro IC50 (corrected for medium binding)” value in [15] is “below the in vitro IC50”. This compound also had a clearance in data set [15] (female, BALB/c, plasma, 2 mg/kg IV) of 9 mL/min/kg. The AUC(0-t) in [15] (setting [16]) came out at 35400 ng·h/mL. The compound further returned a bioavailability in data set [15] (setting [16]) of 37%. The maximum concentration (Cmax) in data set [15] (setting [17]) was 2000 ng/mL. The microsomal CLint at 0.5 μM in data set [1] is 25 µL/min/mg.

In data set [15] (setting [16]), `Cn1nccc1C(=O)Nc1nc2ccc(C#N)cc2n1CC(F)(F)F` [Compound 30, O=C(c1ccnn1C)Nc2nc(ccc(C#N)c3)c3n2CC(F)(F)F] had an AUC(0-t) of 25200 ng·h/mL and a half-life of 6.8 h. For the same compound, in [15] (setting [17]), the Cmax came out at 2000 ng/mL. Also, in [1], the microsomal CLint at 0.5 μM came to 17 µL/min/mg.

In the case of `Cn1nc(C(F)(F)F)cc1C(=O)Nc1nc2ccc(C#N)cc2n1CC(F)(F)F` [Compound 39, O=C(c1cc(C(F)(F)F)nn1C)Nc2nc(ccc(C#N)c3)c3n2CC(F)(F)F], the IC50 came to 4160 nM in data set [2]; 3010 nM in data set [3]; 17000 nM in [4]; 3040 nM in [5]; 110 nM in [6]; 5900 nM in data set [7]. In addition, the IC50 came out at 4650 nM in [8]; 1080 nM in [9]; 1220 nM in data set [10]; 3640 nM in data set [11]; 3210 nM in data set [12]; 100 nM in data set [13]. Moreover, in data set [14], the IC50 is 1610 nM. Further, in [15], the “free plasma concentration (corrected by PPB) versus in vitro IC50 (corrected for medium binding)” value is recorded as “up to four times above the free IC50”. In addition, the Cmax in data set [15] (female, BALB/c, plasma, single 50 mg/kg oral dose, read-out: total Cmax) was around 17 µM; in data set [15] (setting [17]), 7300 ng/mL. This compound also yielded an AUC(0-t) in [15] (setting [16]) of 63700 ng·h/mL. In addition, the half-life in [15] (setting [16]) is 8 h. Also, the “exposure (AUClast) compared to 29 at the same dose” value in data set [15] (oral 50 mg/kg) is 2 fold. The microsomal CLint at 0.5 μM in data set [1] worked out at 20 µL/min/mg.
